Test results reported in ChEMBL document CHEMBL1140600, “Recent advances in proton pump inhibitors and management of acid-peptic disorders” (Bioorg Med Chem, 2007).

Test: Dissociation constant, pKa of the compound
Format: physicochemical
Compound COc1ccc2nc([S@@+]([O-])Cc3ncc(C)c(OC)c3C)[nH]c2c1 [ESOMEPRAZOLE] has a pKa of 4. Compound COCCCOc1ccnc(C[S+]([O-])c2nc3ccccc3[nH]2)c1C (stereo unspecified) [RABEPRAZOLE] has a pKa of 5. Cc1c(OCC(F)(F)F)ccnc1C[S+]([O-])c1nc2ccccc2[nH]1 (stereo unspecified) [LANSOPRAZOLE] showed a pKa of 4. With COc1ccnc(C[S+]([O-])c2nc3ccc(OC(F)F)cc3[nH]2)c1OC (stereo unspecified) [PANTOPRAZOLE] the pKa was 4.

Test: Inhibition of H+/K+ ATPase
CCOC(=O)c1cnc(C[S+]([O-])c2nc3ccccc3[nH]2)nc1N(C)C (stereo unspecified) gave an IC50 of 7.5 µM. COc1ccc2[nH]c([S+]([O-])Cc3ncc(C)c(OC)c3C)nc2c1 (stereo unspecified) [OMEPRAZOLE] showed an IC50 of 5.8 µM.
